Legend:
BV-2 [1] = assay: Anti-neuroinflammatory activity against LPS-stimulated C57BL/6 mouse BV-2 cells assessed as inhibition of NO release at 30 uM preincubated with compound for 4 hrs followed by LPS addition and measured after 24 hrs by Griess reagent based assay relative to control; format: functional; settings: C57BL/6, BV-2, time 28 hrs
[2] = Cytotoxicity against C57BL/6 mouse BV-2 cells assessed as survival rate at 30 uM incubated for 24 hrs by MTT assay relative to control; format: toxicity, cell-based; settings: read-out: Survival
BV-2 [3] = assay: Anti-neuroinflammatory activity against LPS-stimulated C57BL/6 mouse BV-2 cells assessed as inhibition of NO release preincubated with compound for 4 hrs followed by LPS addition and measured after 24 hrs by Griess reagent based assay; format: functional, cell-based; settings: C57BL/6, BV-2
BV-2 [4] = assay: Anti-neuroinflammatory activity against LPS-stimulated C57BL/6 mouse BV-2 cells assessed as inhibition of NO release at 10 uM preincubated with compound for 4 hrs followed by LPS addition and measured after 24 hrs by Griess reagent based assay relative to control; format: functional; settings: C57BL/6, BV-2, time 28 hrs
[5] = Cytotoxicity against C57BL/6 mouse BV-2 cells assessed as survival rate at 10 uM incubated for 24 hrs by MTT assay relative to control; format: toxicity, cell-based; settings: read-out: Survival

Row | Compound | inhibition at 30 µM (BV-2 [1]) [%] | viability at 24 h, 30 µM [2] [%] | IC50 (BV-2 [3]) [µM] | inhibition at 10 µM (BV-2 [4]) [%] | viability at 24 h, 10 µM [5] [%]
1 | CCN1C[C@]2(OC(=O)c3ccccc3NC(=O)S(=O)(=O)c3cccnc3)CC[C@H](OC)[C@]34C1[C@@H](C[C@H]23)[C@@]1(O)C[C@H](OC)[C@H]2C[C@@H]4[C@]1(O)[C@H]2OC | 63.2 | 99.3 | 22.2 |  | 
2 | CCN1C[C@]2(OC(=O)c3ccccc3NC(=O)c3ccc(Br)s3)CC[C@H](OC)[C@]34C1[C@@H](C[C@H]23)[C@@]1(O)C[C@H](OC)[C@H]2C[C@@H]4[C@]1(O)[C@H]2OC | 72.9 | 103 | 16.5 |  | 
3 | CCCOc1ccc(C(=O)Nc2ccccc2C(=O)O[C@@]23CC[C@H](OC)[C@]45C([C@@H](C[C@H]24)[C@@]2(O)C[C@H](OC)[C@H]4C[C@@H]5[C@]2(O)[C@H]4OC)N(CC)C3)cc1 | 74.8 | 105 | 15.5 |  | 
4 | CCN1C[C@]2(COC(=O)c3ccccc3NC(=O)c3ccc(Cl)s3)CC[C@H](OC)[C@]34C1[C@@H](C[C@H]23)[C@@]1(O)C[C@H](OC)[C@H]2C[C@@H]4[C@]1(O)[C@H]2OC |  |  |  | 13.5 | 105
5 | CCN1C[C@]2(OC(=O)c3ccccc3NC(=O)S(=O)(=O)c3cc(F)cc(F)c3)CC[C@H](OC)[C@]34C1[C@@H](C[C@H]23)[C@@]1(O)C[C@H](OC)[C@H]2C[C@@H]4[C@]1(O)[C@H]2OC | 64.1 | 102 | 20.4 |  | 
6 | CCN1C[C@]2(OC(=O)c3ccccc3NC(=O)S(=O)(=O)c3ccccc3F)CC[C@H](OC)[C@]34C1[C@@H](C[C@H]23)[C@@]1(O)C[C@H](OC)[C@H]2C[C@@H]4[C@]1(O)[C@H]2OC | 68 | 106 | 18.9 |  | 
7 | CCc1ccc(C(=O)Nc2ccccc2C(=O)O[C@H]2[C@@H]3C[C@H]4[C@@]56C7[C@@H](C[C@@H]5[C@@](COC)(CC[C@@H]6OC)CN7CC)[C@@](O)(C[C@@H]3OC)[C@@]24O)cc1 |  |  |  |  | 1.2
8 | CCc1ccc(C(=O)Nc2ccccc2C(=O)O[C@@]23CC[C@H](OC)[C@]45C([C@@H](C[C@H]24)[C@@]2(O)C[C@H](OC)[C@H]4C[C@@H]5[C@]2(O)[C@H]4OC)N(CC)C3)cc1 | 83.9 | 107 | 10.4 |  | 
9 | CCN1C[C@]2(OC(=O)c3ccccc3NC(=O)S(=O)(=O)c3ccc(Br)s3)CC[C@H](OC)[C@]34C1[C@@H](C[C@H]23)[C@@]1(O)C[C@H](OC)[C@H]2C[C@@H]4[C@]1(O)[C@H]2OC | 81.9 | 103 | 11.4 |  | 
10 | CCN1C[C@]2(OC(=O)c3ccccc3NC(=O)c3ccc(N(C)C)cc3)CC[C@H](OC)[C@]34C1[C@@H](C[C@H]23)[C@@]1(O)C[C@H](OC)[C@H]2C[C@@H]4[C@]1(O)[C@H]2OC | 62.4 | 101 | 23.6 |  | 
11 | CCN1C[C@]2(OC(=O)c3ccccc3NC(=O)S(=O)(=O)c3c(C)c(C)c4c(c3C)CC(C)(C)O4)CC[C@H](OC)[C@]34C1[C@@H](C[C@H]23)[C@@]1(O)C[C@H](OC)[C@H]2C[C@@H]4[C@]1(O)[C@H]2OC |  |  |  | 17.5 | 95.8
12 | CCN1C[C@]2(COC)CC[C@H](OC)[C@]34C1[C@@H](C[C@H]23)[C@@]1(O)C[C@H](OC)[C@H]2C[C@@H]4[C@]1(O)[C@H]2OC(=O)c1ccccc1NC(=O)c1ccc(Cl)s1 |  |  |  | 22.2 | 97.8
13 | CCN1C[C@]2(OC(=O)c3ccccc3NC(=O)CC(C)(C)C)CC[C@H](OC)[C@]34C1[C@@H](C[C@H]23)[C@@]1(O)C[C@H](OC)[C@H]2C[C@@H]4[C@]1(O)[C@H]2OC | 74.8 | 106 | 16.1 |  | 
14 | CCO/C=C/C(=O)Nc1ccccc1C(=O)O[C@@]12CC[C@H](OC)[C@]34C([C@@H](C[C@H]13)[C@@]1(O)C[C@H](OC)[C@H]3C[C@@H]4[C@]1(O)[C@H]3OC)N(CC)C2 | 28.7 | 110 |  |  | 
15 | CCN1C[C@]2(OC(=O)c3ccccc3NC(=O)c3ccc(S(C)(=O)=O)cc3)CC[C@H](OC)[C@]34C1[C@@H](C[C@H]23)[C@@]1(O)C[C@H](OC)[C@H]2C[C@@H]4[C@]1(O)[C@H]2OC | 20 | 103 |  |  | 
16 | CCN1C[C@]2(OC(=O)c3ccccc3NC(=O)S(=O)(=O)CCCCl)CC[C@H](OC)[C@]34C1[C@@H](C[C@H]23)[C@@]1(O)C[C@H](OC)[C@H]2C[C@@H]4[C@]1(O)[C@H]2OC | 23.5 | 104 |  |  | 
17 | CCN1C[C@]2(OC(=O)c3ccccc3NC(=O)c3cccc(Br)c3)CC[C@H](OC)[C@]34C1[C@@H](C[C@H]23)[C@@]1(O)C[C@H](OC)[C@H]2C[C@@H]4[C@]1(O)[C@H]2OC | 44.1 | 100 |  |  | 

Row | Compound | inhibition at 30 µM (BV-2 [1]) [%] | viability at 24 h, 30 µM [2] [%] | IC50 (BV-2 [3]) [µM] | inhibition at 10 µM (BV-2 [4]) [%] | viability at 24 h, 10 µM [5] [%]
18 | CCN1C[C@]2(OC(=O)c3ccccc3NC(=O)c3ccccc3N(C)C)CC[C@H](OC)[C@]34C1[C@@H](C[C@H]23)[C@@]1(O)C[C@H](OC)[C@H]2C[C@@H]4[C@]1(O)[C@H]2OC | 34.7 | 101 |  |  | 
19 | CCN1C[C@]2(OC(=O)c3ccccc3NC(=O)C3CCCCC3)CC[C@H](OC)[C@]34C1[C@@H](C[C@H]23)[C@@]1(O)C[C@H](OC)[C@H]2C[C@@H]4[C@]1(O)[C@H]2OC | 44.5 | 105 |  |  | 
20 | CCN1C[C@]2(OC(=O)c3ccccc3NC(=O)S(=O)(=O)c3cccc(C)c3)CC[C@H](OC)[C@]34C1[C@@H](C[C@H]23)[C@@]1(O)C[C@H](OC)[C@H]2C[C@@H]4[C@]1(O)[C@H]2OC | 46.5 | 106 |  |  | 
21 | CCN1C[C@]2(OC(=O)c3ccccc3NC(=O)S(=O)(=O)c3cccs3)CC[C@H](OC)[C@]34C1[C@@H](C[C@H]23)[C@@]1(O)C[C@H](OC)[C@H]2C[C@@H]4[C@]1(O)[C@H]2OC | 55.9 | 105 |  |  | 
22 | CCN1C[C@]2(OC(=O)c3ccccc3NC(=O)S(=O)(=O)c3ccc(OC)c(OC)c3)CC[C@H](OC)[C@]34C1[C@@H](C[C@H]23)[C@@]1(O)C[C@H](OC)[C@H]2C[C@@H]4[C@]1(O)[C@H]2OC | 19.4 | 105 |  |  | 
23 | CCN1C[C@]2(OC(=O)c3ccccc3NC(=O)S(=O)(=O)c3ccc(OC)cc3OC)CC[C@H](OC)[C@]34C1[C@@H](C[C@H]23)[C@@]1(O)C[C@H](OC)[C@H]2C[C@@H]4[C@]1(O)[C@H]2OC | 20.9 | 99.7 |  |  | 
24 | CCCOc1ccccc1C(=O)Nc1ccccc1C(=O)O[C@@]12CC[C@H](OC)[C@]34C([C@@H](C[C@H]13)[C@@]1(O)C[C@H](OC)[C@H]3C[C@@H]4[C@]1(O)[C@H]3OC)N(CC)C2 | 78.5 | 106 | 11.8 |  | 
25 | CCN1C[C@]2(OC(=O)c3ccccc3NC(=O)S(=O)(=O)c3ccccc3C#N)CC[C@H](OC)[C@]34C1[C@@H](C[C@H]23)[C@@]1(O)C[C@H](OC)[C@H]2C[C@@H]4[C@]1(O)[C@H]2OC | 27.5 | 101 |  |  | 
26 | CCCCOC(=O)c1ccccc1NC(=O)c1ccc(Cl)s1 | 42.8 | 110 |  |  | 
27 | CCN1C[C@]2(OC(=O)c3ccccc3NC(=O)S(=O)(=O)c3ccccn3)CC[C@H](OC)[C@]34C1[C@@H](C[C@H]23)[C@@]1(O)C[C@H](OC)[C@H]2C[C@@H]4[C@]1(O)[C@H]2OC | 29.9 | 100 |  |  | 
28 | CCN1C[C@]2(OC(=O)c3ccccc3NC(=O)S(=O)(=O)c3ccccc3C(F)(F)F)CC[C@H](OC)[C@]34C1[C@@H](C[C@H]23)[C@@]1(O)C[C@H](OC)[C@H]2C[C@@H]4[C@]1(O)[C@H]2OC | 13.7 | 107 |  |  | 
29 | CCN1C[C@]2(OC(=O)c3ccccc3NC(=O)c3ccc(Cl)s3)CC[C@H](OC)[C@]34C1[C@@H](C[C@H]23)[C@@]1(O)C[C@H](OC)[C@H]2C[C@@H]4[C@]1(O)[C@H]2OC | 82.1 | 108 | 11.3 |  | 
30 | CCN1C[C@]2(OC(=O)c3ccccc3NC(=O)S(=O)(=O)c3ccc(Cl)s3)CC[C@H](OC)[C@]34C1[C@@H](C[C@H]23)[C@@]1(O)C[C@H](OC)[C@H]2C[C@@H]4[C@]1(O)[C@H]2OC | 69 | 100 | 17.9 |  | 
31 | CCN1C[C@]2(OC(=O)c3ccccc3NC(=O)CCc3ccccc3)CC[C@H](OC)[C@]34C1[C@@H](C[C@H]23)[C@@]1(O)C[C@H](OC)[C@H]2C[C@@H]4[C@]1(O)[C@H]2OC | 16.6 | 108 |  |  | 
32 | CCN1C[C@]2(OC(=O)c3ccccc3NC(=O)S(=O)(=O)CC)CC[C@H](OC)[C@]34C1[C@@H](C[C@H]23)[C@@]1(O)C[C@H](OC)[C@H]2C[C@@H]4[C@]1(O)[C@H]2OC | 12.5 | 106 |  |  | 
33 | CCN1C[C@]2(O)CC[C@H](OC)[C@]34C1[C@@H](C[C@H]23)[C@@]1(O)C[C@H](OC)[C@H]2C[C@@H]4[C@]1(O)[C@H]2OC | 8.8 | 97.4 |  |  | 

Reference: ChEMBL document CHEMBL6078668, “Synthesis and biological evaluation of lappaconitine analogues as potential anti-neuroinflammatory agents by side chain modification and scaffold hopping strategy” (Bioorg Med Chem, 2025)
